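Growth conditions: 96-well plates. Treatment: test compound, 48 hours, 5 concentrations. Analysis: linear interpolation between bracketing concentrations; unreached endpoints set to highest concentration. TGI: concentration producing complete growth inhibition.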
How the values were obtained:
Assay in all cases: DTP human tumour cell line panel, 48 h
HOP-92 NSCLC = system: HOP-92 NSCLC
NCI-H23 lung = system: NCI-H23 lung
RPMI-8226 leukemia = system: RPMI-8226 leukemia
DU-145 prostate = system: DU-145 prostate
SF-539 CNS = system: SF-539 CNS
COLO 205 colon = system: COLO 205 colon
SK-MEL-28 melanoma = system: SK-MEL-28 melanoma
UACC-257 melanoma = system: UACC-257 melanoma
M14 melanoma = system: M14 melanoma
CAKI-1 renal = system: CAKI-1 renal
786-0 renal = system: 786-0 renal
HOP-62 NSCLC = system: HOP-62 NSCLC
MDA-N = system: MDA-N
MOLT-4 leukemia = system: MOLT-4 leukemia
PC-3 prostate = system: PC-3 prostate
A549 NSCLC = system: A549 NSCLC
EKVX NSCLC = system: EKVX NSCLC
BT-549 breast = system: BT-549 breast
NCI/ADR-RES ovarian = system: NCI/ADR-RES ovarian
OVCAR-4 ovarian = system: OVCAR-4 ovarian
UO-31 renal = system: UO-31 renal
OVCAR-5 ovarian = system: OVCAR-5 ovarian
UACC-62 melanoma = system: UACC-62 melanoma
HS 578T breast = system: HS 578T breast
HCT-15 colon = system: HCT-15 colon
SK-MEL-5 melanoma = system: SK-MEL-5 melanoma
MDA-MB-435 = system: MDA-MB-435
SK-MEL-2 melanoma = system: SK-MEL-2 melanoma
MALME-3M melanoma = system: MALME-3M melanoma
HT29 colon = system: HT29 colon
IGROV1 ovarian = system: IGROV1 ovarian
OVCAR-3 ovarian = system: OVCAR-3 ovarian
TK-10 renal = system: TK-10 renal
NCI-H460 lung = system: NCI-H460 lung
T-47D breast = system: T-47D breast
HCT-116 colon = system: HCT-116 colon
SF-268 CNS = system: SF-268 CNS
SR leukemia = system: SR leukemia
SNB-75 CNS = system: SNB-75 CNS
KM12 colon = system: KM12 colon
SNB-19 CNS = system: SNB-19 CNS
ACHN renal = system: ACHN renal
SK-OV-3 ovarian = system: SK-OV-3 ovarian
SN12C renal = system: SN12C renal
HCC-2998 colon = system: HCC-2998 colon
OVCAR-8 ovarian = system: OVCAR-8 ovarian
LOX IMVI melanoma = system: LOX IMVI melanoma
U251 CNS = system: U251 CNS
NCI-H522 lung = system: NCI-H522 lung
SF-295 CNS = system: SF-295 CNS
CCRF-CEM leukemia = system: CCRF-CEM leukemia
NCI-H226 lung = system: NCI-H226 lung
SW-620 colon = system: SW-620 colon
MDA-MB-231 breast = system: MDA-MB-231 breast
MCF7 breast = system: MCF7 breast
K-562 leukemia = system: K-562 leukemia
HL-60(TB) leukemia = system: HL-60(TB) leukemia
RXF 393 renal = system: RXF 393 renal

COc1ccc2c(c1)-c1c(c3ccccc3n1CCN1CCOCC1)CC2
TGI (HOP-92 NSCLC): > 100 µM
TGI (NCI-H23 lung): 65.6 µM
TGI (RPMI-8226 leukemia): 97 µM
TGI (DU-145 prostate): > 100 µM
TGI (SF-539 CNS): 52.4 µM
TGI (COLO 205 colon): 32.5 µM
TGI (SK-MEL-28 melanoma): > 100 µM
TGI (UACC-257 melanoma): > 100 µM
TGI (M14 melanoma): > 100 µM
TGI (CAKI-1 renal): 81.9 µM
TGI (786-0 renal): 54.1 µM
TGI (HOP-62 NSCLC): 74.8 µM
TGI (MDA-N): > 100 µM
TGI (MOLT-4 leukemia): 37.9 µM
TGI (PC-3 prostate): 45.3 µM
TGI (A549 NSCLC): > 100 µM
TGI (EKVX NSCLC): 63.8 µM
TGI (BT-549 breast): 63.5 µM
TGI (NCI/ADR-RES ovarian): 46 µM
TGI (OVCAR-4 ovarian): > 100 µM
TGI (UO-31 renal): 96.8 µM
TGI (OVCAR-5 ovarian): > 100 µM
TGI (UACC-62 melanoma): 49.4 µM
TGI (HS 578T breast): 32.3 µM
TGI (HCT-15 colon): > 100 µM
TGI (SK-MEL-5 melanoma): 31.3 µM
TGI (MDA-MB-435): > 100 µM
TGI (SK-MEL-2 melanoma): 28.9 µM
TGI (MALME-3M melanoma): 46.2 µM
TGI (HT29 colon): 25.9 µM
TGI (IGROV1 ovarian): 38.5 µM
TGI (OVCAR-3 ovarian): 56.6 µM
TGI (TK-10 renal): 1.78 µM
TGI (NCI-H460 lung): 34.2 µM
TGI (T-47D breast): > 100 µM
TGI (HCT-116 colon): 76.8 µM
TGI (SF-268 CNS): 76.9 µM
TGI (SR leukemia): 53.3 µM
TGI (SNB-75 CNS): 49 µM
TGI (KM12 colon): 26.7 µM
TGI (SNB-19 CNS): 71.5 µM
TGI (ACHN renal): > 100 µM
TGI (SK-OV-3 ovarian): > 100 µM
TGI (SN12C renal): > 100 µM
TGI (HCC-2998 colon): 34.3 µM
TGI (OVCAR-8 ovarian): 53.2 µM
TGI (LOX IMVI melanoma): 34.5 µM
TGI (U251 CNS): 81.8 µM
TGI (NCI-H522 lung): 37.3 µM
TGI (SF-295 CNS): 35.5 µM
TGI (CCRF-CEM leukemia): 85.8 µM
TGI (NCI-H226 lung): 26.3 µM
TGI (SW-620 colon): > 100 µM
TGI (MDA-MB-231 breast): 90.9 µM
TGI (MCF7 breast): > 100 µM
TGI (K-562 leukemia): 54.5 µM

O=C(O)c1ccc(/C=N\N(CCO)C2=NCCN2)cc1
TGI (HOP-92 NSCLC): > 100 µM
TGI (NCI-H23 lung): > 100 µM
TGI (RPMI-8226 leukemia): > 100 µM
TGI (DU-145 prostate): > 100 µM
TGI (SF-539 CNS): > 100 µM
TGI (COLO 205 colon): > 100 µM
TGI (SK-MEL-28 melanoma): > 100 µM
TGI (M14 melanoma): > 100 µM
TGI (786-0 renal): > 100 µM
TGI (HOP-62 NSCLC): > 100 µM
TGI (HL-60(TB) leukemia): > 100 µM
TGI (MDA-N): > 100 µM
TGI (MOLT-4 leukemia): > 100 µM
TGI (PC-3 prostate): > 100 µM
TGI (A549 NSCLC): > 100 µM
TGI (EKVX NSCLC): > 100 µM
TGI (BT-549 breast): > 100 µM
TGI (OVCAR-4 ovarian): > 100 µM
TGI (UO-31 renal): > 100 µM
TGI (OVCAR-5 ovarian): > 100 µM
TGI (UACC-62 melanoma): > 100 µM
TGI (HS 578T breast): > 100 µM
TGI (HCT-15 colon): > 100 µM
TGI (SK-MEL-5 melanoma): > 100 µM
TGI (MDA-MB-435): > 100 µM
TGI (SK-MEL-2 melanoma): > 100 µM
TGI (MALME-3M melanoma): > 100 µM
TGI (HT29 colon): > 100 µM
TGI (IGROV1 ovarian): > 100 µM
TGI (OVCAR-3 ovarian): > 100 µM
TGI (TK-10 renal): > 100 µM
TGI (NCI-H460 lung): > 100 µM
TGI (T-47D breast): > 100 µM
TGI (HCT-116 colon): > 100 µM
TGI (SF-268 CNS): > 100 µM
TGI (SR leukemia): > 100 µM
TGI (SNB-75 CNS): > 100 µM
TGI (KM12 colon): > 100 µM
TGI (SNB-19 CNS): > 100 µM
TGI (ACHN renal): > 100 µM
TGI (SK-OV-3 ovarian): > 100 µM
TGI (SN12C renal): > 100 µM
TGI (HCC-2998 colon): > 100 µM
TGI (OVCAR-8 ovarian): > 100 µM
TGI (LOX IMVI melanoma): > 100 µM
TGI (U251 CNS): > 100 µM
TGI (SF-295 CNS): > 100 µM
TGI (CCRF-CEM leukemia): > 100 µM
TGI (NCI-H226 lung): > 100 µM
TGI (SW-620 colon): > 100 µM
TGI (MDA-MB-231 breast): > 100 µM
TGI (RXF 393 renal): > 100 µM
TGI (MCF7 breast): > 100 µM
TGI (K-562 leukemia): > 100 µM
